The record followed here is patent US12187718B1, “1-cyclopropyl-6-fluoro-7-(4-((5-(4-methoxybenzylideneamino)-2-thioxo-1,3,4-thiadiazol-3(2H)-yl)methyl)piperazin-1-yl)-4-oxo-1,4-dihydroquinoline-3-carboxylic acid as an anti-inflammatory and anticancer compound” (KING FAISAL UNIVERSITY, priority 2023, dated 2025).

In test [1] the test system is human prostate cancer cells (PC3). The test can be described thus: Cytotoxicity by SRB assay, PC3 cells. The class given is cell-based. The conditions noted are these: androgen-independent metastatic human prostate cancer cells (PC3), 72 h, 0.01 μM to 100 μM. Here is the method:
(§1) The human prostate cancer cells (PC3) and human osteosarcoma cells (MG-63) were obtained from Nawah Scientific Inc. (Mokatam, Cairo, Egypt) and cultured in DMEM (Dulbecco's modified eagle's medium), Gibco, USA, supplemented with fetal bovine serum (FBS) at a concentration of 10% and 100 U/mL of penicillin and streptomycin (PS). The Cells were incubated at 37° C. in a humidified environment that contained 5% CO2.
(§2) Cells were seeded in 96-well plates as aliquots of 100 μL cell suspension and incubated in a complete media for 24 h. afterward, cells were treated with N′-(1-naphthoyloxy)-2-(benzo[d]thiazol-2-yl)acetimidamide at diverse concentrations ranging from 0.01 μM to 100 μM for 72 h. Then, cells were fixed at 4° C. for one hour with 150 μL of 10% trichloroacetic acid (TCA). After washing the cells five times with distilled water, 70 μL of sulforhodamine (SRB) solution (0.4% w/v) was added and incubated for 10 min at room temperature in a dark place. […] Then, 150 μL of Tris pH 10.5 (10 mM) was added, and the absorbance was measured at 540 nm using a BMG LABTECH®-FLUOstar Omega microplate reader (Ortenberg, Germany). Half maximal inhibitory concentrations (IC50) values were calculated for each experiment using GraphPad Prism 6 software. […]
(§3) The inhibition was calculated using the following equation: Inhibition %=100−Average Viability
In general terms: The SRB assay estimates cell density from bound dye.

The subject of test [2] is human osteosarcoma cells (MG-63). In words: Cytotoxicity by SRB assay, MG-63 cells. The class given is cell-based. As to conditions: osteosarcoma (MG-63) cells, 72 h, 0.01 μM to 100 μM. The protocol:
as §1, §2, §3

The target in a further test is Bovine Serum Albumin (Bos taurus, UniProt P02769). The test can be described thus: Bovine Serum Albumin Assay (BSA), inhibition of protein denaturation. The format is biochemical. As to conditions: BSA 0.4% w/v, pH 6.4, 72° C. for 10 minutes, 20-100 μg/mL, turbidity at 660 nm. Here is the method:
In vitro-inflammatory activities of the tested samples were determined using a modified method of the BSA assay reported by Williams et al. BSA solution (0.4%, w/v) was prepared in Tris Buffered Saline. The pH was adjusted to 6.4 with glacial acetic acid. Different dilutions of 20, 40, 60, 80, and 100 μg/mL of the stock solutions were added to test tubes containing 1 mL of 0.4%, w/v BSA buffer solution. Both negative (solvent) and positive (aspirin) controls were assayed in a similar manner. The solutions were then heated in a water bath at 72° C. for 10 minutes and cooled for 20 minutes under laboratory conditions. The turbidity of the solutions (level of protein precipitation) was measured at 660 nm in Spectrophotometer (V-770 UV-Visible/NIR Spectrophotometer).
The percentage inhibition of precipitation (protein denaturation) was determined relative to the negative control using the following equation:
[formula] % Anti-Denaturation Activity=% Inhibition of Protein Denaturation=% Anti-inflammatory Activity

Sequence of Bovine Serum Albumin (P02769 25-607): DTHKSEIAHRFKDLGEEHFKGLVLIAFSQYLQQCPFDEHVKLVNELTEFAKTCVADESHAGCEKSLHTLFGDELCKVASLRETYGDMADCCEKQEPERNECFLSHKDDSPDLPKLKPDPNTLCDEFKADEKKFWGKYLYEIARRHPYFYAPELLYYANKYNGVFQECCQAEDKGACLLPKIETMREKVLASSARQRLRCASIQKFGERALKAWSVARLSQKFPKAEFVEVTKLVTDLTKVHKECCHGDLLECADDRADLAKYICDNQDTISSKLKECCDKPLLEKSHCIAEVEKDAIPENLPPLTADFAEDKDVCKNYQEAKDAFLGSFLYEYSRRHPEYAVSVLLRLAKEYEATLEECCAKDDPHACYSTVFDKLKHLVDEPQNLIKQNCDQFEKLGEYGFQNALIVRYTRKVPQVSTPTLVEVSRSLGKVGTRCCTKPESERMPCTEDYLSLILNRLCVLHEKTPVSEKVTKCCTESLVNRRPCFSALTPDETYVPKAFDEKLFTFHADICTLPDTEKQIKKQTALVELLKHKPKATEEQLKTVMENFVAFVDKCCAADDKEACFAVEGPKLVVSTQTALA

Regarding `COc1ccc(/C=N/c2nn(CN3CCN(c4cc5c(cc4F)c(=O)c(C(=O)O)cn5C4CC4)CC3)c(=S)s2)cc1` [1-cyclopropyl-6-fluoro-7-(4-((5-(4-methoxybenzylideneamino)-2-thioxo-1,3,4-thiadiazol-3(2H)-yl)methyl)piperazin-1-yl)-4-oxo-1,4-dihydroquinoline-3-carboxylic acid], in test [1], the “antiproliferative activity against PC3 cells” value was “excellent antiproliferative activities”. The “antiproliferative activity against MG-63 cells” value in test [2] is listed as “excellent antiproliferative activities”. Besides, the “in vitro anti-inflammatory activity (inhibition of protein denaturation)” value on Bovine Serum Albumin is recorded as “considerable anti-inflammatory effect”.
